Experimental data as given in patent US11951185B2, “RNA constructs and uses thereof” (BioNTech SE, priority 2020, dated 2024).

Legend:
[1] = LNP formulation comparison: RNA encapsulation efficiency, apparent pKa, LNP size and polydispersity; format: physicochemical; details: LNP with surrogate RNA coding for luciferase; among the screened cationic lipids
Method: (§1) An exemplary LNP delivery system was developed to effectively and safely deliver therapeutic nucleic acids into the cytosol of various cell types after local administration in vivo. The early formulation work was performed with several promising LNP formulations and surrogate RNA coding for luciferase. The aim of the experiments was to correlate the effect of different ionizable cationic lipids on the efficacy of RNA delivery by LNPs in vivo. Formulations were compared in terms of RNA encapsulation efficiency, apparent pKa, LNP size and polydispersity.

luciferase (Luc) RNA = experiment: In vivo screening of LNP pilot batches using luciferase (Luc) RNA, intravenous administration; details: on the basis of the in vivo screening studies
Method: as §1
Based on this the ALC-0315/DSPC/CHOL/ALC-0159 prototype was submitted for in vivo screening. The results presented in FIG. 16 summarize the in vivo testing of two independent pilot batches using luciferase (Luc) RNA.
The formulation screening procedure described above involves intravenous administration resulting in delivery primarily to the liver. The mechanism of LNP uptake into hepatocytes is driven by binding of endogenous apolipoproteins to the LNP followed by receptor-mediated endocytosis e.g. through low density lipoprotein receptors. […] Luc expression was monitored at 4, 24, 72 and 96 hours post administration (FIG. 17).

Compound: CCCCCCCCC(CCCCCC)C(=O)OCCCCCCN(CCCCO)CCCCCCOC(=O)C(CCCCCC)CCCCCCCC (centres unmarked) [ALC-0315, ((4-hydroxybutyl)azanediyl)bis(hexane-6,1-diyl)bis(2-hexyldecanoate)]
- physical characteristics regarding particle size, homogeneity, and RNA encapsulation efficiency [1]: suitable physical characteristics
- potency as cationic lipid (luciferase (Luc) RNA): highly potent
